# Legend:
# MYLK = MYLK (Homo sapiens, UniProt Q15746); experiment: MYLK Assay (LanthaScreen Eu Kinase Binding Assay); details: 5 nM MYLK, 30 nM tracer 236, RT 1 h; read-out: MYLK Activities: IC50
# Method: In the assay LanthaScreen™ Eu Kinase Binding Assay by Invitrogen Corporation (Carlsbad) the effect of invention of a compound on the phosphorylation is determined by measurement of fluorescence intensity emission ratio based on the binding and displacement of a proprietary, Alexa Fluor® 647-labeled, ATP-competitive kinase inhibitor scaffold (kinase tracer) to the kinase of interest as described above.
# To the wells of an 384 well small volume plate (Greiner, Frickenhausen) are added (i) the compound under test in 5% is DMSO/distilled water (5 μl), (ii) 5 μl of the kinase antibody mixture resulting in a final concentration 5 nM MYLK, 2 nM EU-Anti-GST antibody in 1× kinase buffer A. The reaction was started with addition of (iii) 5 μl resulting in a final concentration of 30 nM tracer 236. The assay plate was incubated at RT for 1 h and fluorescence intensity readings were collected using a TECAN M1000 at two wavelengths of λex 340/λem 615 nm and λex 340/λem 665 nm with a delay time of 100 μs and an integration time of 200 μs after 60 minutes. The emission ratio was calculated by division of the acceptor/tracer emission ([…]) by the antibody/donor emission ([…]). The inhibitor concentration was plotted versus the emission ratio to determine the IC50 using XLFit 5.0 (IDBS, Guildford) to fit to a sigmoidal dose response curve with a variable slope.
# SYK kinase = target: T1, SYK kinase (Homo sapiens, UniProt P43405); experiment: SYK Assay (OMNIA KINASE ASSAY, SOX peptide fluorescence); format: biochemical; details: apparent Ki calculated from the IC50 using the Cheng-Prusoff equation; 1 mM ATP, 30° C.; read-out: SYK Activities: Ki
# T1 construct: purchased Invitrogen, Carlsbad
# How it was run: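 Apparent Ki values are derived by Cheng-Prusoff from IC50s of sigmoidal fits of reaction rate against compound concentration. Rates come from chelation-enhanced SOX fluorescence (λex 360/λem 485 nm, read every 30 s over 30 min) as the kinase phosphorylates 10 µM Omnia Tyr 7 peptide at 30 °C, with 1 mM ATP and 0.2 mM DTT.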
# LRRK2 = LRRK2 (Homo sapiens, UniProt Q5S007); experiment: LRRK2-LRRK2 G2019S-Assay (LanthaScreen Eu Kinase Binding Assay); details: 5 nM LRRK2 or their mutants, 10 nM tracer 236, RT 1 h; read-out: LRRK2 Activities: IC50
# How it was run: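 Kinase (wild type or mutant, 5 nM) mixed with Eu-anti-GST antibody (2 nM), then 10 nM Alexa Fluor 647 tracer 236 added. After 1 h at room temperature, the acceptor/donor (665/615 nm) FRET ratio was measured. IC50 was fitted from concentration–ratio curves.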
# Sequence of LRRK2 (Q5S007 970-2527 limits assumed): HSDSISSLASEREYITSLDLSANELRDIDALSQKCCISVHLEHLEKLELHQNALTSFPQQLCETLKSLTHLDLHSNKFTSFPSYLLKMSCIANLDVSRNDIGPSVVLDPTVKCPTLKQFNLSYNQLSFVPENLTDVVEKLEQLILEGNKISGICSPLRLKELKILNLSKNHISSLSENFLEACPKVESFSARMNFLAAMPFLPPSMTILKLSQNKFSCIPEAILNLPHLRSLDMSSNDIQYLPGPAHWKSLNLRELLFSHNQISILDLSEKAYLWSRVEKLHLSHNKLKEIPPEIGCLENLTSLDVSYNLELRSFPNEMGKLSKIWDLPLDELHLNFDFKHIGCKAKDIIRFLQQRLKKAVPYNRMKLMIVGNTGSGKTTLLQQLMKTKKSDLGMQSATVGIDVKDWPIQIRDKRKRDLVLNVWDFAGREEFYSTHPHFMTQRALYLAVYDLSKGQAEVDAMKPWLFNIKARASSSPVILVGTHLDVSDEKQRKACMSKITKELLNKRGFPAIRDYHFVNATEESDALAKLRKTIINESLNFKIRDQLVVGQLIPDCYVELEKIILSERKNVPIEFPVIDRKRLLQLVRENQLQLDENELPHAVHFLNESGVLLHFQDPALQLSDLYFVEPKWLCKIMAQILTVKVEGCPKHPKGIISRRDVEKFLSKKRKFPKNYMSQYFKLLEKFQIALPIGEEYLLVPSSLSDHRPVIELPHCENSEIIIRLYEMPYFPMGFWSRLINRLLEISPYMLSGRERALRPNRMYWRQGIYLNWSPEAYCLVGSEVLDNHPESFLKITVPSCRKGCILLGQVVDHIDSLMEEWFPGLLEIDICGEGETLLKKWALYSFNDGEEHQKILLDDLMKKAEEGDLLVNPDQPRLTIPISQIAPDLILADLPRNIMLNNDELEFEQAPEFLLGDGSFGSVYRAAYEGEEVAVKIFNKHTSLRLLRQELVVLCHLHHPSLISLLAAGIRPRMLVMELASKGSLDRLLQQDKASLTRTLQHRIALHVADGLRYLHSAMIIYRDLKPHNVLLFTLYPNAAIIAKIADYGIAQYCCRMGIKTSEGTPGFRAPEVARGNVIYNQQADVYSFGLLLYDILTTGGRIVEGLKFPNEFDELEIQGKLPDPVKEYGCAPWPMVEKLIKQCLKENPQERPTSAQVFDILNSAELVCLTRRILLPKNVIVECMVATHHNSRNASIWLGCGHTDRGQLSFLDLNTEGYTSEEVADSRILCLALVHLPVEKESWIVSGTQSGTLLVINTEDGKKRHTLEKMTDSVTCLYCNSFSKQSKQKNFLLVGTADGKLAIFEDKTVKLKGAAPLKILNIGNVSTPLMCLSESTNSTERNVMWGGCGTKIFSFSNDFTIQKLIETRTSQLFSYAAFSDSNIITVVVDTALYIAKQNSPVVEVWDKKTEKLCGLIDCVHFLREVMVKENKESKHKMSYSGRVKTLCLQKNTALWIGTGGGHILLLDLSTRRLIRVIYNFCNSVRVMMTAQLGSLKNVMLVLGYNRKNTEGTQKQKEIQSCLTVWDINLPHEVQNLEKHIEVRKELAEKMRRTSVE
# Sequence of MYLK (Q15746 whole entry): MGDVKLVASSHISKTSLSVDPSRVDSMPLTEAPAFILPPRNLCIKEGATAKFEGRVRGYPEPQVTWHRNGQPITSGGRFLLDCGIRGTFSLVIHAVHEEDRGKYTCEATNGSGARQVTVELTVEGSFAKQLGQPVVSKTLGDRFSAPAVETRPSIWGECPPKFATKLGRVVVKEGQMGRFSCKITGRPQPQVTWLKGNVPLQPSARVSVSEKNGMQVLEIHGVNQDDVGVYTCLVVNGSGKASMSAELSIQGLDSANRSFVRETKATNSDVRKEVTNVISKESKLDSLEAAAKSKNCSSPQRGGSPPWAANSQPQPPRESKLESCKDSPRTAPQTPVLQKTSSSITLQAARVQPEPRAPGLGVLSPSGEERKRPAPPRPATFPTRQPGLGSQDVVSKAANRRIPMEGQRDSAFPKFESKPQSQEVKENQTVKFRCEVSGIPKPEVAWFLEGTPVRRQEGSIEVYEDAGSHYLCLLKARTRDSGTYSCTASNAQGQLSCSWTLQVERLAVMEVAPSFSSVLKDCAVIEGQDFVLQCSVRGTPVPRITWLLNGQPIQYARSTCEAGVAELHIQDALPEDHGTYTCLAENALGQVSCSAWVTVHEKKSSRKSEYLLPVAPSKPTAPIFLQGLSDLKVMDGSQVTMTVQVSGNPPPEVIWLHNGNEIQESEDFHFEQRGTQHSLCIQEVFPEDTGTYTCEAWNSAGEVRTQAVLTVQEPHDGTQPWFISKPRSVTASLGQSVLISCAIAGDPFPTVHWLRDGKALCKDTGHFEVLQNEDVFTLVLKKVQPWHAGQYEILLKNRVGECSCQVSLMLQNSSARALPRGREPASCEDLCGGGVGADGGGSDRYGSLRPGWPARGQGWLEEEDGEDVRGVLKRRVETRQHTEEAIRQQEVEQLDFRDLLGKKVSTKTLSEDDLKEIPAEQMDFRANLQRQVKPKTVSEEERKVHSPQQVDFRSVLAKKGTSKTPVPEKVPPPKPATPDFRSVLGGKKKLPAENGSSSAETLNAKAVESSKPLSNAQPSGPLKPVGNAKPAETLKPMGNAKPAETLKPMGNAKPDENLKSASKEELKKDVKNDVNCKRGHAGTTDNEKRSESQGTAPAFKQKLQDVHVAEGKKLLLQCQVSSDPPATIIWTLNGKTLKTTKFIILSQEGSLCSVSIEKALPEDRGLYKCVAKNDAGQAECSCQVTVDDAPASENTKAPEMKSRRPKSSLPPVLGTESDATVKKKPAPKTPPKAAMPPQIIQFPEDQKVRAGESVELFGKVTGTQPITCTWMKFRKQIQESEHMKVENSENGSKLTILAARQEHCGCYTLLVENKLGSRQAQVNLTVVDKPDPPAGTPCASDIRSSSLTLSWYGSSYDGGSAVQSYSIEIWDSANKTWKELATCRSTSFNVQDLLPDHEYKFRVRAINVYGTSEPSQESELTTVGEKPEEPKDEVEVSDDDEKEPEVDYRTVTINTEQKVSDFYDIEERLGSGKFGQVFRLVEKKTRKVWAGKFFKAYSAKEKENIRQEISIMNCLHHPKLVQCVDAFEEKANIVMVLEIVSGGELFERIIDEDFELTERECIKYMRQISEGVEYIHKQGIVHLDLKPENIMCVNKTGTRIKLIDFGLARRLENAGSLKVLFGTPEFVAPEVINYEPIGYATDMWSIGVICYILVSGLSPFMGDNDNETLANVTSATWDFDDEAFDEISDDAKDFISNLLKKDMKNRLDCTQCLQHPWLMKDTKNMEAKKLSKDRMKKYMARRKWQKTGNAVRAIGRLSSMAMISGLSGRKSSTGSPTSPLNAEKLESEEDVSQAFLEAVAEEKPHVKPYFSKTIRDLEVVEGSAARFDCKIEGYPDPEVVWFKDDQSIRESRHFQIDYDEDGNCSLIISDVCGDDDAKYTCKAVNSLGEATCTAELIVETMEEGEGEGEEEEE
Structure (SMILES),IC50 (MYLK),Ki (SYK kinase),IC50 (LRRK2)
"NC(=O)c1cccc(Nc2nc(-c3ccccc3)nc3cn[nH]c23)c1 [Example #5, 3-((5-phenyl-1H-pyrazolo[4,3-d]pyrimidin-7-yl)amino)benzamide]",< 5000 nM,< 10 nM,100 to 1000 nM
"COc1cccc(Nc2nc(-c3ccccc3)nc3cn[nH]c23)c1 [Example #8, N-(3-methoxyphenyl)-5-phenyl-1H-pyrazolo[4,3-d]pyrimidin-7-amine]",< 5000 nM,10 to 100 nM,–
"CN1CCN(c2ccc(Nc3nc(-c4ccncc4)nc4cn[nH]c34)cc2)CC1 [Example #20, N-(4-(4-methylpiperazin-1-yl)phenyl)-5-(pyridin-4-yl)-1H-pyrazolo[4,3-d]pyrimidin-7-amine]",< 5000 nM,< 10 nM,100 to 1000 nM
"c1cc(Nc2nc(-c3cc[nH]n3)nc3cn[nH]c23)n[nH]1 [Example #45, N,5-di(1H-pyrazol-3-yl)-1H-pyrazolo[4,3-d]pyrimidin-7-amine]",< 5000 nM,100 to 1000 nM,–
"c1ccc(-c2nc(Nc3cc(C4CC4)[nH]n3)c3[nH]ncc3n2)cc1 [Example #57, N-(5-cyclopropyl-1H-pyrazol-3-yl)-5-phenyl-1H-pyrazolo[4,3-d]pyrimidin-7-amine]",< 5000 nM,10 to 100 nM,–
"COc1ccc(-c2nc(Nc3ccc(C(=O)N4CCCC4)cc3)c3[nH]ncc3n2)cc1 [Example #160, (4-((5-(4-methoxyphenyl)-1H-pyrazolo[4,3-d]pyrimidin-7-yl)amino)phenyl)(pyrrolidin-1-yl)methanone]",< 5000 nM,< 10 nM,–
"CN1CCN(c2ccc(Nc3nc(-c4cc(C(=O)O)cs4)nc4cn[nH]c34)cc2)CC1 [Example #175, 5-(7-((4-(4-methylpiperazin-1-yl)phenyl)amino)-1H-pyrazolo[4,3-d]pyrimidin-5-yl)thiophene-3-carboxylic acid]",< 5000 nM,< 10 nM,–
"CN1CCN(c2ccc(Nc3nc(-c4ccc(C(=O)O)cc4)nc4cn[nH]c34)cc2)CC1 [Example #241, 4-(7-((4-(4-methylpiperazin-1-yl)phenyl)amino)-1H-pyrazolo[4,3-d]pyrimidin-5-yl)benzoic acid]",< 5000 nM,< 10 nM,–
"Cc1nc2cc(Nc3nc(-c4cccc(S(C)(=O)=O)c4)nc4cn[nH]c34)ccc2[nH]1 [Example #252, N-(2-methyl-1H-benzo[d]imidazol-5-yl)-5-(3-(methylsulfonyl)phenyl)-1H-pyrazolo[4,3-d]pyrimidin-7-amine]",< 5000 nM,10 to 100 nM,–
"O=S(=O)(CCO)c1cccc(Nc2nc(-c3cccs3)nc3cn[nH]c23)c1 [Example #255, 2-((3-((5-(thiophen-2-yl)-1H-pyrazolo[4,3-d]pyrimidin-7-yl)amino)phenyl)sulfonyl)ethan-1-ol]",< 5000 nM,100 to 1000 nM,–
"O=C1CCc2ccc(Nc3nc(-c4ccc5cn[nH]c5c4)nc4cn[nH]c34)cc2N1 [Example #269, 7-((5-(1H-indazol-6-yl)-1H-pyrazolo[4,3-d]pyrimidin-7-yl)amino)-3,4-dihydroquinolin-2(1H)-one]",–,< 10 nM,< 10 nM
"Fc1ccc(-c2nc(Nc3ccc(N4CCOCC4)cc3)c3[nH]ncc3n2)cc1 [Example #271, 5-(4-fluorophenyl)-N-(4-morpholinophenyl)-1H-pyrazolo[4,3-d]pyrimidin-7-amine]",–,10 to 100 nM,100 to 1000 nM
"CS(=O)(=O)c1cccc(Nc2nc(-c3ccccc3F)nc3cn[nH]c23)c1 [Example #276, 5-(2-fluorophenyl)-N-(3-(methylsulfonyl)phenyl)-1H-pyrazolo[4,3-d]pyrimidin-7-amine]",< 5000 nM,10 to 100 nM,–
"CS(=O)(=O)c1ccccc1Nc1nc(-c2ccccc2F)nc2cn[nH]c12 [Example #277, 5-(2-fluorophenyl)-N-(2-(methylsulfonyl)phenyl)-1H-pyrazolo[4,3-d]pyrimidin-7-amine]",< 5000 nM,100 to 1000 nM,–
"CN1CCN(C2CCN(c3ccc(Nc4nc(-c5ccccc5F)nc5cn[nH]c45)cc3)CC2)CC1 [Example #278, 5-(2-fluorophenyl)-N-(4-(4-(4-methylpiperazin-1-yl)piperidin-1-yl)phenyl)-1H-pyrazolo[4,3-d]pyrimidin-7-amine]",–,< 10 nM,100 to 1000 nM
"COc1ccc(Nc2nc(-c3c(F)cccc3F)nc3cn[nH]c23)cc1OC [Example #281, 5-(2,6-difluorophenyl)-N-(3,4-dimethoxyphenyl)-1H-pyrazolo[4,3-d]pyrimidin-7-amine]",–,< 10 nM,100 to 1000 nM
"Fc1cccc(F)c1-c1nc(Nc2ccc(N3CCOCC3)cc2)c2[nH]ncc2n1 [Example #282, 5-(2,6-difluorophenyl)-N-(4-morpholinophenyl)-1H-pyrazolo[4,3-d]pyrimidin-7-amine]",–,10 to 100 nM,100 to 1000 nM
"Fc1cccc(F)c1-c1nc(Nc2ccc(N3CCN(C4CC4)CC3)cc2)c2[nH]ncc2n1 [Example #283, N-(4-(4-cyclopropylpiperazin-1-yl)phenyl)-5-(2,6-difluorophenyl)-1H-pyrazolo[4,3-d]pyrimidin-7-amine]",–,10 to 100 nM,100 to 1000 nM

# Continued, values first:
IC50 (MYLK),Ki (SYK kinase),IC50 (LRRK2),Structure (SMILES)
< 5000 nM,10 to 100 nM,–,"Fc1ccc(-c2nc(Nc3ccc(N4CCOCC4)cc3)c3[nH]ncc3n2)c(F)c1 [Example #286, 5-(2,4-difluorophenyl)-N-(4-morpholinophenyl)-1H-pyrazolo[4,3-d]pyrimidin-7-amine]"
< 5000 nM,10 to 100 nM,–,"O=C1COc2ccc(-c3nc(Nc4ccc(N5CCOCC5)cc4)c4[nH]ncc4n3)cc2N1 [Example #288, 6-(7-((4-morpholinophenyl)amino)-1H-pyrazolo[4,3-d]pyrimidin-5-yl)-2H-benzo[b][1,4]oxazin-3(4H)-one]"
< 5000 nM,10 to 100 nM,–,"Cc1nc2cc(Nc3nc(-c4ccc5c(c4)NC(=O)CO5)nc4cn[nH]c34)ccc2[nH]1 [Example #289, 6-(7-((2-methyl-1H-benzo[d]imidazol-5-yl)amino)-1H-pyrazolo[4,3-d]pyrimidin-5-yl)-2H-benzo[b][1,4]oxazin-3(4H)-one]"
–,< 10 nM,100 to 1000 nM,"Fc1cc(Nc2nc(-c3cccs3)nc3cn[nH]c23)ccc1N1CCOCC1 [Example #296, N-(3-fluoro-4-morpholinophenyl)-5-(thiophen-2-yl)-1H-pyrazolo[4,3-d]pyrimidin-7-amine]"
–,< 10 nM,10 to 100 nM,"CN1CCN(C2CCN(C(=O)c3ccc(Nc4nc(-c5cccs5)nc5cn[nH]c45)cc3)CC2)CC1 [Example #297, (4-(4-methylpiperazin-1-yl)piperidin-1-yl)(4-((5-(thiophen-2-yl)-1H-pyrazolo[4,3-d]pyrimidin-7-yl)amino)phenyl)methanone]"
–,< 10 nM,100 to 1000 nM,"COc1ccc(Nc2nc(-c3ccc4c(c3)NCCO4)nc3cn[nH]c23)cc1OC [Example #300, 5-(3,4-dihydro-2H-benzo[b][1,4]oxazin-6-yl)-N-(3,4-dimethoxyphenyl)-1H-pyrazolo[4,3-d]pyrimidin-7-amine]"
–,10 to 100 nM,100 to 1000 nM,"c1cc(N2CCOCC2)ccc1Nc1nc(-c2ccc3c(c2)NCCO3)nc2cn[nH]c12 [Example #301, 5-(3,4-dihydro-2H-benzo[b][1,4]oxazin-6-yl)-N-(4-morpholinophenyl)-1H-pyrazolo[4,3-d]pyrimidin-7-amine]"
–,< 10 nM,100 to 1000 nM,"Cc1nc2cc(Nc3nc(-c4ccc5c(c4)NCCO5)nc4cn[nH]c34)ccc2[nH]1 [Example #302, 5-(3,4-dihydro-2H-benzo[b][1,4]oxazin-6-yl)-N-(2-methyl-1H-benzo[d]imidazol-5-yl)-1H-pyrazolo[4,3-d]pyrimidin-7-amine]"
–,< 10 nM,100 to 1000 nM,"CN1Cc2ccc(Nc3nc(-c4cccs4)nc4cn[nH]c34)cc2C1 [Example #303, N-(2-methylisoindolin-5-yl)-5-(thiophen-2-yl)-1H-pyrazolo[4,3-d]pyrimidin-7-amine]"
–,< 10 nM,100 to 1000 nM,"c1csc(-c2nc(Nc3ccc4c(c3)COC4)c3[nH]ncc3n2)c1 [Example #304, N-(1,3-dihydroisobenzofuran-5-yl)-5-(thiophen-2-yl)-1H-pyrazolo[4,3-d]pyrimidin-7-amine]"
–,10 to 100 nM,100 to 1000 nM,"CN(C)Cc1ccc(Nc2nc(-c3ccccc3F)nc3cn[nH]c23)cc1 [Example #311, N-(4-((dimethylamino)methyl)phenyl)-5-(2-fluorophenyl)-1H-pyrazolo[4,3-d]pyrimidin-7-amine]"

# Source: patent US9802937B2, “Substituted pyrazolo{4,3-D}pyrimidines as kinase inhibitors” (ORIGENIS GMBH, priority 2011, dated 2017)
